How the values were obtained:
[1] = biological target: human IgG (Homo sapiens, UniProt P01857); assay: SPR affinity analysis of IgG-binding peptides on immobilized IgG (BIAcore T200); set-up: kd: unit not given here; settings: for ka / kd: SPR, peptides N-terminally blocked with biotinylated PEG4, NHS group hydrolysed
Protocol: 0.4 M EDC (1-ethyl-3-(3-dimethylaminopropyl)-carbodiimide) and 0.1 M sulfo-NHS (sulfo-N-hydroxysuccinimide) were mixed in equal amounts and then injected onto a CMS sensor chip loaded in BIAcore T200 (GE Healthcare Japan Corp.) for 7 minutes at a flow rate of […] to activate the sensor chip. IgG was immobilized thereonto in an amount of 4000 to 5000 in terms of RU value under conditions of pH 4.0 (10 mM sodium acetate). While a HBS-EP buffer solution (0.01 M HEPES, 0.15 M NaCl, 0.005% Tween 20, and 3 mM EDTA, pH 7.0) was used, binding reaction was monitored by the injection of the peptide at a concentration of 10 nM to 2 μM for 180 seconds at a flow rate of […]. Then, dissociation reaction was assayed by washing with a buffer solution for 600 seconds. Binding parameters were analyzed using BIAevalution T100 software.

[2] = biological target: T1, hIgG (Homo sapiens, UniProt P01857); assay: ELISA of biotinylated IgG-binding peptide on plate-adsorbed hIgG; settings: peptide unmodified with cross-linking agent
T1 construct: purchased Chugai Pharmaceutical Co., Ltd
Protocol: A 0.1 M NaHCO3 solution containing each protein (IgG (Chugai Pharmaceutical Co., Ltd.), IgA (Athens Research & Technology, Inc.), or bovine gelatin (Wako Pure Chemical Industries, Ltd.)) (50 ng (0.33 pmol)/μ1/well) was added to wells of a 96-well microplate (Nunc® MaxiSorp), and the plate was left overnight at room temperature to adsorb each protein onto the surface of the plate. After blocking with 0.5% BSA, a biotinylated IgG-binding peptide modified with DSG (molar ratio: 0, 1, 2, 5, or 10), prepared in the same way as in Example 2 was added to each well. After 1 hour, the reaction was terminated by the addition of 1 M Tris-HCl (pH 7.0) at 3 μL/well. SA-HRP (Vector Laboratories, Inc.) diluted 2000-fold with 0.5% BSA was added thereto at 50 μL/well and reacted at room temperature for 1 hour. Then, the plate was washed five times with 0.1% PBST. Then, a TMB solution (Wako Pure Chemical Industries, Ltd.) was used in the color development of HRP. After 5-minute chromogenic reaction, the absorbance at 450 nm was measured using an ELISA plate reader (model 680 microplate reader (Bio-Rad Laboratories, Inc.)).
The biotinylated IgG-binding peptide modified with DSG was added at a molar ratio of 2 to hIgG (50 ng) immobilized overnight at 4° C. with a 50 ng/50 μL solution. […] The binding was detected in the same way as in (A).

human IgG, sequence (P01857 1-328): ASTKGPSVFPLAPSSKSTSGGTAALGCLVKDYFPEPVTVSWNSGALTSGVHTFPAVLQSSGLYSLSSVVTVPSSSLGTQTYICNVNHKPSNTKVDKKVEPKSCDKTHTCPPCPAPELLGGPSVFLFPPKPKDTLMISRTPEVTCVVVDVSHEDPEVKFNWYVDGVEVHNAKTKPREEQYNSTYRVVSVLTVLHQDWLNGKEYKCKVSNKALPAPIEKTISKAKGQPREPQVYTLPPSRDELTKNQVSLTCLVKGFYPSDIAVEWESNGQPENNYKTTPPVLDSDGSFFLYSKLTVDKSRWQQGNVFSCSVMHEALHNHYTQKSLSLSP
T1 sequence (P01857 1-328): as above

| Substance | ka [1] | kd [1] | decrease of affinity for human IgG as compared with Type I ([1]; R8K substitution versus peptide before substitution) [times] | binding to hIgG (ELISA) [2] |
| --- | --- | --- | --- | --- |
| GDDCAYHK(DSS-OH)GELVWCTFH-NH2 [Type I(R8K)-DSS-OH] | 1.68E+05 | 0.06136 |  |  |
| GDDCAYHK(DSG-OH)GELVWCTFH-NH2 [Type I(R8K)-DSG-OH] | 3.29E+05 | 0.1036 |  |  |
| GDDCAYHKGELVWCTFH-NH2 [Type I(R8K)] | 1.25E+06 | 0.195 | 10 | Very weak binding |
| GPDCAYHRGELVWCTFH-NH2 [Type I] | 1.57E+06 | 0.0144 |  |  |

Reference: US12037417B2, “Site-specific radioisotope-labeled antibody using IgG-binding peptide” (Kagoshima University, priority 2016, dated 2024)
